Data published in patent publication US20160046579A1, “THERAPEUTIC COMPOUNDS AND COMPOSITIONS” (AGIOS PHARMACEUTICALS, INC., priority 2013, published 2016).

How the values were obtained:
wt PKR [1] = target: T1, wt PKR (Homo sapiens, UniProt P30613); assay: PKR Mutant Assay, dose response (AC50), wild type PKR enzyme; format: biochemical; conditions: wild type PKR enzyme
Experimental: (§1) • PKR or PKR mutant enzyme solution was diluted in assay buffer. • 2 μL of test compound was added into wells first, and then 180 μL reaction mix was added. • Reactions mixture with test compound was assembled except for ADP, and plates were stored for 60 minutes at room temperature. • 20 uL ADP was added to start reaction at room temperature and reaction progress was measured as changes in absorbance at 340 nm wavelength at room temperature.
(§2) Test Compound Preparation: • Test compound stock was made at 100× concentration in 100% DMSO (10 mM) • 1 to 3 dilutions were made for 11 points (i.e. 50 μl of first concentration added to 100 μl 100% DMSO to yield 3.33 mM, 50 μl of this added to 100 μl DMSO to yield 1.11 mM, and so forth) • 1 to 100 dilution into assay (2 μl in 200 μl) yielded starting concentration of 100 μM, decreasing 3 fold for 11 points.

PKR R510Q = PKR R510Q (Homo sapiens, UniProt P30613, R510Q); assay: PKR Mutant Assay, dose response (AC50), PKR R510Q; format: biochemical; conditions: PKR R510Q mutant enzyme
Experimental: as §1, §2

PKR R532W = PKR R532W (Homo sapiens, UniProt P30613, R532W); assay: PKR Mutant Assay, dose response (AC50), PKR R532W; format: biochemical; conditions: PKR R532W mutant enzyme
Experimental: as §1, §2

wt PKR [2] = target: T1, wt PKR; assay: wt PKR cell based assay

PKR R510Q, sequence (P30613 whole entry R510Q): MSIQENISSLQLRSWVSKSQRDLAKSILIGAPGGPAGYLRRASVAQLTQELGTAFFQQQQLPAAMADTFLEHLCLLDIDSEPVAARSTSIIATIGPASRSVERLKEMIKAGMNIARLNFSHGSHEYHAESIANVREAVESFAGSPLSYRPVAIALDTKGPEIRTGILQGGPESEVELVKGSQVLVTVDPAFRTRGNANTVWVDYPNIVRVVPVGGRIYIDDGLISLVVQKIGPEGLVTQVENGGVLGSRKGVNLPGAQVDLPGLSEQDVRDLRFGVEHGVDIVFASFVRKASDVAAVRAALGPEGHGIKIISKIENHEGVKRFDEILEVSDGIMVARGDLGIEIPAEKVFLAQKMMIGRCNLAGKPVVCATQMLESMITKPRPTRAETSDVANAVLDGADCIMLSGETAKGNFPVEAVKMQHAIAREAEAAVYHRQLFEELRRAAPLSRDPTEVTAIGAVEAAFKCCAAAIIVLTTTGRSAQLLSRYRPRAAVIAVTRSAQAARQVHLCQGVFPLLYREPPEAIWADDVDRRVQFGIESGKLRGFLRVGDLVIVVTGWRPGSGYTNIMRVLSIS
PKR R532W, sequence (P30613 whole entry R532W): as the sequence (P30613 whole entry R510Q) above, with Q510R, R532W counted along it
T1 sequence (P30613 whole entry): as the sequence (P30613 whole entry R510Q) above, with Q510R counted along it

CC(F)(F)CCC1(O)CCN(C(=O)c2ccc(NS(=O)(=O)c3cccc4nccnc34)cc2F)CC1 [Compound 478, N-(4-(4-(3,3-difluorobutyl)-4-hydroxypiperidine-1-carbonyl)-3-fluorophenyl)quinoxaline-5-sulfonamide]
AC50 (wt PKR [1]): 0.101 to 1 µM
AC50 (PKR R510Q): 0.101 to 1 µM
AC50 (PKR R532W): 0.101 to 1 µM
AC50 (wt PKR [2]): 0.101 to 1 µM

O=C(c1ccc(NS(=O)(=O)c2cccc3nccnc23)cc1)N1CCC(O)(Cc2cc[nH]n2)CC1 [Compound 500, N-(4-(4-((1H-pyrazol-3-yl)methyl)-4-hydroxypiperidine-1-carbonyl)phenyl)quinoxaline-5-sulfonamide]
AC50 (wt PKR [1]): 0.101 to 1 µM
AC50 (PKR R510Q): 1.01 to 10 µM
AC50 (PKR R532W): 0.101 to 1 µM
AC50 (wt PKR [2]): 0.101 to 1 µM

Cc1noc(C)c1CC1(O)CCN(C(=O)c2ccc(NS(=O)(=O)c3cccc4nccnc34)cc2)CC1 [Compound 521, N-(4-(4-((3,5-dimethylisoxazol-4-yl)methyl)-4-hydroxypiperidine-1-carbonyl)phenyl)quinoxaline-5-sulfonamide]
AC50 (wt PKR [1]): < 0.1 µM
AC50 (PKR R510Q): 0.101 to 1 µM
AC50 (PKR R532W): < 0.1 µM
AC50 (wt PKR [2]): < 0.1 µM

CC(F)(F)CCC1(O)CCN(C(=O)c2ccc(NS(=O)(=O)c3cccc4nc(N)cnc34)cc2)CC1 [Compound 486, 2-amino-N-(4-(4-(3,3-difluorobutyl)-4-hydroxypiperidine-1-carbonyl)phenyl)quinoxaline-5-sulfonamide]
AC50 (wt PKR [1]): < 0.1 µM
AC50 (PKR R510Q): 0.101 to 1 µM
AC50 (PKR R532W): < 0.1 µM
AC50 (wt PKR [2]): < 0.1 µM

O=C(c1ccc(NS(=O)(=O)c2cccc3scnc23)cc1)N1CCC(O)(C2CCC(O)CC2)CC1 (stereo not shown) [Compound 501, N-(4-(4-hydroxy-4-(4-hydroxycyclohexyl)piperidine-1-carbonyl)phenyl)benzo[d]thiazole-4-sulfonamide]
AC50 (wt PKR [1]): 0.101 to 1 µM
AC50 (PKR R510Q): 0.101 to 1 µM
AC50 (PKR R532W): 0.101 to 1 µM
AC50 (wt PKR [2]): 0.101 to 1 µM

Cc1nscc1CC1(O)CCN(C(=O)c2ccc(NS(=O)(=O)c3cccc4ncsc34)cc2)CC1 [Compound 519, N-(4-(4-hydroxy-4-((3-methylisothiazol-4-yl)methyl)piperidine-1-carbonyl)phenyl)benzo[d]thiazole-7-sulfonamide]
AC50 (wt PKR [1]): < 0.1 µM
AC50 (PKR R510Q): < 0.1 µM
AC50 (PKR R532W): < 0.1 µM
AC50 (wt PKR [2]): < 0.1 µM

O=C(c1ccc(NS(=O)(=O)c2cccc3nccnc23)cc1)N1CCC(O)(Cc2c(O)n[nH]c2C(F)(F)F)CC1 [Compound 523]
AC50 (wt PKR [1]): 0.101 to 1 µM
AC50 (PKR R510Q): 1.01 to 10 µM
AC50 (PKR R532W): 0.101 to 1 µM
AC50 (wt PKR [2]): 0.101 to 1 µM

CC(F)(F)CCC1(O)CCN(C(=O)c2ccc(NS(=O)(=O)c3cc(F)cc4sc(N)nc34)cc2F)CC1 [Compound 483, 2-amino-N-(4-(4-(3,3-difluorobutyl)-4-hydroxypiperidine-1-carbonyl)-3-fluorophenyl)-6-fluorobenzo[d]thiazole-4-sulfonamide]
AC50 (wt PKR [1]): < 0.1 µM
AC50 (PKR R510Q): 0.101 to 1 µM
AC50 (PKR R532W): 0.101 to 1 µM
AC50 (wt PKR [2]): 0.101 to 1 µM

Cc1nscc1CC1(O)CCN(C(=O)c2ccc(NS(=O)(=O)c3cccc4nccnc34)cc2)CC1 [Compound 497, N-(4-(4-hydroxy-4-((3-methylisothiazol-4-yl)methyl)piperidine-1-carbonyl)phenyl)quinoxaline-5-sulfonamide]
AC50 (wt PKR [1]): < 0.1 µM
AC50 (PKR R510Q): < 0.1 µM
AC50 (PKR R532W): < 0.1 µM
AC50 (wt PKR [2]): < 0.1 µM

CC(C)CC1(OC(=O)OCOP(=O)(O)O)CCN(C(=O)c2ccc(NS(=O)(=O)c3cccc4nccnc34)cc2)CC1 [Compound 527, 4-isobutyl-1-(4-(quinoxaline-5-sulfonamido)benzoyl)piperidin-4-yl phosphonooxymethyl carbonate]
AC50 (wt PKR [1]): 0.101 to 1 µM
AC50 (PKR R510Q): 0.101 to 1 µM
AC50 (PKR R532W): 0.101 to 1 µM
AC50 (wt PKR [2]): < 0.1 µM

Cc1cc(C2(O)CCN(C(=O)c3ccc(NS(=O)(=O)c4cccc5scnc45)cc3)CC2)sn1 [Compound 479]
AC50 (wt PKR [1]): < 0.1 µM
AC50 (PKR R510Q): 0.101 to 1 µM
AC50 (PKR R532W): < 0.1 µM
AC50 (wt PKR [2]): 0.101 to 1 µM

CC(F)(F)CCC1(O)CCN(C(=O)c2ccc(NS(=O)(=O)c3cccc4scnc34)cc2OC(F)F)CC1 [Compound 473, N-(4-(4-(3,3-difluorobutyl)-4-hydroxypiperidine-1-carbonyl)-3-(difluoromethoxy)phenyl)benzo[d]thiazole-4-sulfonamide]
AC50 (wt PKR [1]): < 0.1 µM
AC50 (PKR R510Q): 0.101 to 1 µM
AC50 (PKR R532W): < 0.1 µM
AC50 (wt PKR [2]): 0.101 to 1 µM

O=C(c1ccc(NS(=O)(=O)c2cccc3nccnc23)cc1)N1CCC(O)(Cc2cn[nH]c2)CC1 [Compound 499, N-(4-(4-((1H-pyrazol-4-yl)methyl)-4-hydroxypiperidine-1-carbonyl)phenyl)quinoxaline-5-sulfonamide]
AC50 (wt PKR [1]): < 0.1 µM
AC50 (PKR R510Q): 0.101 to 1 µM
AC50 (PKR R532W): < 0.1 µM
AC50 (wt PKR [2]): 0.101 to 1 µM
